Calls of active or inactive are those of the source.
Tests used:
[1] = biological target: T1, Short transient receptor potential channel 4 (Mus musculus, UniProt Q9QUQ5); assay: mouse TRPC4 channel activators, dose response, cell-based, HEK293 TRPC4/mu-opioid, Fluo-4 calcium (AID 434937); format: functional
T1 sequence (Q9QUQ5 whole entry): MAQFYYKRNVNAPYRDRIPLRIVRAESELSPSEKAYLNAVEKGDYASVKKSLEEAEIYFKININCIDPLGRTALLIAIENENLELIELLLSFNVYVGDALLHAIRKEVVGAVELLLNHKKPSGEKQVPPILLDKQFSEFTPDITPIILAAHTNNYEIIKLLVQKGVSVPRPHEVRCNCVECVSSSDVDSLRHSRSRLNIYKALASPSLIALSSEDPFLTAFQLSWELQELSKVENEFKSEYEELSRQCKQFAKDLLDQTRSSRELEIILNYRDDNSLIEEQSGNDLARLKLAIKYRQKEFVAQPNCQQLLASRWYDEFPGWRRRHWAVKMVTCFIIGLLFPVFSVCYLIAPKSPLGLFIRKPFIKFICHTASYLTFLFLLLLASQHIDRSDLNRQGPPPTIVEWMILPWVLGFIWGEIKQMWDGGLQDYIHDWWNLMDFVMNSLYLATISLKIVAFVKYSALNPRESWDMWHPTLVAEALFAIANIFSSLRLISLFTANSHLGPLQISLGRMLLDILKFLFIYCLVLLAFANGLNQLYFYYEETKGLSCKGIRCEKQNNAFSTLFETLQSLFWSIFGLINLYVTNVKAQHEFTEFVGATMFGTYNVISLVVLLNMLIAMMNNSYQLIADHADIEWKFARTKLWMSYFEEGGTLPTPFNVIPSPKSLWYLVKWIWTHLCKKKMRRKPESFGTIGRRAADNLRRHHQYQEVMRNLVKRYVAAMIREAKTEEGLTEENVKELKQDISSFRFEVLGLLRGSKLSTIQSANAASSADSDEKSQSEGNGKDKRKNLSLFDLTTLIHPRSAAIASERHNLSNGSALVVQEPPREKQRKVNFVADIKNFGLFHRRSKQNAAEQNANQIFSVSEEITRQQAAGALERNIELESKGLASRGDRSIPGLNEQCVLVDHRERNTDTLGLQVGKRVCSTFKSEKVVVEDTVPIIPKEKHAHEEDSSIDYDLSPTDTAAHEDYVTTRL

[2] = microbe, parasite or virus in culture; format: functional; conditions: Mycobacterium tuberculosis
[3] = NIH-3T3 fibroblast cytotoxicity, dose response, cytotoxicity control, cell-based, fluorescence, Alamar Blue, secondary assay (AID 2327); format: functional;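 further: NIH-3T3 mouse fibroblasts cultured with fluconazole at 8 µg/mL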
[4] = C. albicans growth with fluconazole, confirmation, fluorescence, retest (AID 2467); format: functional, cell-based
[5] = biological target: Heat shock protein HSP 90-alpha (Homo sapiens, UniProt P07900); format: functional, organism-based
[6] = biological target: 26S proteasome non-ATPase regulatory subunit 14 (Homo sapiens, UniProt O00487); assay: inhibition of proteasome subunit RPN11 – biochemical, fluorescence polarization, uHTS hits, confirmation (AID 602368); format: functional
Prothrombin = Prothrombin (Bos taurus, UniProt P00735); assay: thrombin inhibition, dose response, biochemical, fluorescence polarization, uHTS hits (AID 602369); format: functional
[7] = biological target: 72 kDa type IV collagenase (Homo sapiens, UniProt P08253); assay: Dose Response validation of uHTS RPN11 inhibitor hits using a MMP-2 Fluorescence assay.; format: functional
[8] = Luminescence Cell-Based Dose Retest to Confirm Inhibitors of Cancer Stem Cells. [Related pubchem assays (depositor defined):AID2717, AID2721]; format: functional; conditions: Homo sapiens
[9] = biological target: T2, Endoribonuclease toxin MazF (Escherichia coli K-12, UniProt P0AE70); assay: fluorescent RNA oligo signal without MazF, dose response, counter-screen for MazEF activator project, biochemical, fluorescence, single-stranded RNase substrate (AID 588502); format: functional
T2 sequence (P0AE70 whole entry): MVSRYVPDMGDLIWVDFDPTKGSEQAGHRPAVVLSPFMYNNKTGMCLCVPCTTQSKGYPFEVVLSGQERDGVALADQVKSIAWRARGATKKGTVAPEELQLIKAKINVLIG

[10] = biological target: T2, Endoribonuclease toxin MazF; assay: MazF toxin RNase activators, dose response, biochemical, fluorescence, single-stranded RNA substrate, uHTS hits (AID 588481); format: functional
cells = format: functional
[11] = biological target: T3, Replicative DNA helicase DnaB (Mycobacterium tuberculosis, UniProt P9WMR3); assay: DnaB intein splicing inhibitors, dose response, biochemical, cell-free fluorescence (AID 449749); format: functional
T3 sequence (P9WMR3 whole entry): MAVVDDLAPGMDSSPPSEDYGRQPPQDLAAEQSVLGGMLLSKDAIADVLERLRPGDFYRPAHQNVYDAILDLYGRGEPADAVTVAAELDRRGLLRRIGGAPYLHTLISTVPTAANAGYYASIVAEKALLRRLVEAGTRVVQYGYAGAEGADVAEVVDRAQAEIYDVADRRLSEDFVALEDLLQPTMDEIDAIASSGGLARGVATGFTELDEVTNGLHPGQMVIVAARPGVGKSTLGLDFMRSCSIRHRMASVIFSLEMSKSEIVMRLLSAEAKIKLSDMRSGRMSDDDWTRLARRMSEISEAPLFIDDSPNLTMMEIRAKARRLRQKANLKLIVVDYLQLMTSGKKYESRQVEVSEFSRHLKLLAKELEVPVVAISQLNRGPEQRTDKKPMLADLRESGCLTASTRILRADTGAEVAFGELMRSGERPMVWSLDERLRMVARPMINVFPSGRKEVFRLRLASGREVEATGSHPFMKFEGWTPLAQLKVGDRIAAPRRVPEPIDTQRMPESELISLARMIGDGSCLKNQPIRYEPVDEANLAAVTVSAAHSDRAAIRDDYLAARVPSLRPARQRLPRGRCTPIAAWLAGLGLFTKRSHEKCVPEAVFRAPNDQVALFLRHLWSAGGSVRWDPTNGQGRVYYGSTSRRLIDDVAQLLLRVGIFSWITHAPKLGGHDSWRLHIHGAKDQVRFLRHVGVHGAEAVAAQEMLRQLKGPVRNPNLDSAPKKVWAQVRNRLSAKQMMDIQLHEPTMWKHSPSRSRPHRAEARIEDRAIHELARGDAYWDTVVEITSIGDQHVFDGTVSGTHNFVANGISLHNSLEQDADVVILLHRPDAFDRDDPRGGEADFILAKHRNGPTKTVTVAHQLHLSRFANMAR

Protein RecA = biological target: T4, Protein RecA (Mycobacterium tuberculosis, UniProt P9WHJ3); assay: Fluorescence Cell-Free Homogeneous Dose Retest to Identify Inhibitors of RecA-Intein Splicing Activity. [Related pubchem assays (depositor defined):AID2097, AID2223, AID489010, AID492950]; format: functional
T4 sequence (P9WHJ3 whole entry): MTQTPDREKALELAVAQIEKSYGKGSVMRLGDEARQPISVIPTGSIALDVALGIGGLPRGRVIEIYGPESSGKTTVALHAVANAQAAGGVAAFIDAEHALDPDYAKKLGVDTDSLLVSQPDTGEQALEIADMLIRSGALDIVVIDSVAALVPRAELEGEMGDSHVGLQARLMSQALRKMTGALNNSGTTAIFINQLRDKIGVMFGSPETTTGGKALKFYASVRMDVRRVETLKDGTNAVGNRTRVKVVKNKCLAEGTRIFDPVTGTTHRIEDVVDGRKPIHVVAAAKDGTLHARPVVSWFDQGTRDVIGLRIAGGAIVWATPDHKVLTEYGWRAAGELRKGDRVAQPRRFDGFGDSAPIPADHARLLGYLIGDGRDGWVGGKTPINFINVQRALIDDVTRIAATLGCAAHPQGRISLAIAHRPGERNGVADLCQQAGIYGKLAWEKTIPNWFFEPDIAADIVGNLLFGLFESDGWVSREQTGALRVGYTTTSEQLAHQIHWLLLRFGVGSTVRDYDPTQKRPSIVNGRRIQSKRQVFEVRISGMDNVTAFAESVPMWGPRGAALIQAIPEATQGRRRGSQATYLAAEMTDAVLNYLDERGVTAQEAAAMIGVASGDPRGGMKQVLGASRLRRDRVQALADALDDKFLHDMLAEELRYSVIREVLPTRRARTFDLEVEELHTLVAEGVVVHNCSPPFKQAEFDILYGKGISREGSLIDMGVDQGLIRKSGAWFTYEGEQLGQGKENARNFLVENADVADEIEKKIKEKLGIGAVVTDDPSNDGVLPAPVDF

Cytochrome P450 3A4 = Cytochrome P450 3A4 (Homo sapiens, UniProt P08684); conditions: Potency;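 further: confirmatory qHTS run detecting inhibitors and substrates of CYP3A4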
[12] = biological target: Voltage-gated inwardly rectifying potassium channel KCNH2 (Homo sapiens, UniProt Q12809); conditions: Potency;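 further: confirmatory quantitative high-throughput screen measuring inhibition of hERG channel activity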
[13] = inhibitors of SNCA 5'UTR-driven reporter translation, confirmation, H4 neuroglioma cells, luminescence (AID 1988); format: functional, cell-based
[14] = Luminescence Cell-Based Dose Response HTS to Identify Inhibitors of 5'UTR Stem-Loop Driven Prion Protein mRNA Translation in H4 Neuroglioblastoma Cells. [Related pubchem assays: 1827 (Project Summary), 1813 (Primary HTS)]; format: functional
[15] = inhibitors of firefly luciferase expression or activity, dose response, H4 neuroglioma cells, luminescence (AID 1990); format: functional, cell-based
[16] = biological target: T5, Ubiquitin-conjugating enzyme E2 N (Homo sapiens, UniProt P61088); format: functional;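 further: Dose-response confirmation in a TR-FRET assay detecting UBC13-driven polyubiquitin chain formation, inhibition measured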
T5 sequence (P61088 whole entry): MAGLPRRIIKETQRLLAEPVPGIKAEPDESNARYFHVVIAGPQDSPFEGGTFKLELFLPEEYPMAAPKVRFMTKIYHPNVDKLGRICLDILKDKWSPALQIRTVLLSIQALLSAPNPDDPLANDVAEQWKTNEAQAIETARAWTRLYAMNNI

[17] = tested on: Streptococcus sp. 'group A'; assay: growth inhibition of control SK(-) GAS strain, dose response, counter-screen for streptokinase expression inhibitor project, luminescence, kanamycin, BacTiterGlo, confirmation (AID 1900); format: functional, organism-based
INS1 = assay: beta cell apoptosis inhibitors, cytokine rescue, dose response, luminescence, retest (AID 449756); format: functional, cell-based; conditions: Rattus norvegicus;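 further: cell death triggered by IL-1 beta plus TNF-alpha plus IFN-gamma mixture; protective hits raise ATP signal compared with cytokine alone wells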
Streptococcus = assay: Group A Streptococcus viability loss, dose response, counter-screen for streptokinase expression inhibitor project, luminescence, BacTiterGlo (AID 1915); format: functional, organism-based;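 further: potency for reduction of bacterial viability or growth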
P388/ADR = assay: cells; format: functional; conditions: Mus musculus
P388 = assay: cells; format: functional; conditions: Mus musculus
SN12K1 = assay: cells; format: functional; conditions: Homo sapiens

Sequence of Voltage-gated inwardly rectifying potassium channel KCNH2 (Q12809 whole entry): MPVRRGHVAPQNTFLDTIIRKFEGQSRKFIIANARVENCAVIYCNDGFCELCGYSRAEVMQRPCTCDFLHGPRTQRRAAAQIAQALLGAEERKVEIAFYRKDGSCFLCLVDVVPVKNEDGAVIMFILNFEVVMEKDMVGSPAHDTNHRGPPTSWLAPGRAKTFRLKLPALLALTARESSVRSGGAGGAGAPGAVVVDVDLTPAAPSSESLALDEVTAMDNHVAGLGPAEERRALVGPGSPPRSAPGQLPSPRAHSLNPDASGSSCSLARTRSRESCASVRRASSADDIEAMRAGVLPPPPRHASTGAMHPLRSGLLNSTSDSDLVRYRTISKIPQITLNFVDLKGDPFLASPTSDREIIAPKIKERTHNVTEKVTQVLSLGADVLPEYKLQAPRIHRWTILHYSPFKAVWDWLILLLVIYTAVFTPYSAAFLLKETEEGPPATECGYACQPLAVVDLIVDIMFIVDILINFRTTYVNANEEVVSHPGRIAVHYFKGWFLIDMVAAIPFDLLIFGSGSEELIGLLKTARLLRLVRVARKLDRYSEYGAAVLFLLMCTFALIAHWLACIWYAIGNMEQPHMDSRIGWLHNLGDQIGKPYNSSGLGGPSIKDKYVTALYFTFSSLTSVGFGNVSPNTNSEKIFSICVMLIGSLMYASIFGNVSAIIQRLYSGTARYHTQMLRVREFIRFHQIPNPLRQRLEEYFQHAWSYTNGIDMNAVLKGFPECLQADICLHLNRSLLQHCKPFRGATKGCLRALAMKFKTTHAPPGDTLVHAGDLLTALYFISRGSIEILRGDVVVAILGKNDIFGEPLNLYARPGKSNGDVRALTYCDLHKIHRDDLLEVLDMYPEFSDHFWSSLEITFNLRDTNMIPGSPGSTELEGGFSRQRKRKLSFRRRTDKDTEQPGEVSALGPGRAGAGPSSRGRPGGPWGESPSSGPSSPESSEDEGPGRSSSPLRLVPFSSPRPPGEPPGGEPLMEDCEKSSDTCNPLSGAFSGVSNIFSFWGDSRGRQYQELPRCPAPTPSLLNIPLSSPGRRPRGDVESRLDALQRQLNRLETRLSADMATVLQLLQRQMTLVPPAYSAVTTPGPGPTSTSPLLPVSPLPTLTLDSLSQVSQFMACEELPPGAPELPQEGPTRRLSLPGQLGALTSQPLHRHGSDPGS
Sequence of 72 kDa type IV collagenase (P08253 whole entry): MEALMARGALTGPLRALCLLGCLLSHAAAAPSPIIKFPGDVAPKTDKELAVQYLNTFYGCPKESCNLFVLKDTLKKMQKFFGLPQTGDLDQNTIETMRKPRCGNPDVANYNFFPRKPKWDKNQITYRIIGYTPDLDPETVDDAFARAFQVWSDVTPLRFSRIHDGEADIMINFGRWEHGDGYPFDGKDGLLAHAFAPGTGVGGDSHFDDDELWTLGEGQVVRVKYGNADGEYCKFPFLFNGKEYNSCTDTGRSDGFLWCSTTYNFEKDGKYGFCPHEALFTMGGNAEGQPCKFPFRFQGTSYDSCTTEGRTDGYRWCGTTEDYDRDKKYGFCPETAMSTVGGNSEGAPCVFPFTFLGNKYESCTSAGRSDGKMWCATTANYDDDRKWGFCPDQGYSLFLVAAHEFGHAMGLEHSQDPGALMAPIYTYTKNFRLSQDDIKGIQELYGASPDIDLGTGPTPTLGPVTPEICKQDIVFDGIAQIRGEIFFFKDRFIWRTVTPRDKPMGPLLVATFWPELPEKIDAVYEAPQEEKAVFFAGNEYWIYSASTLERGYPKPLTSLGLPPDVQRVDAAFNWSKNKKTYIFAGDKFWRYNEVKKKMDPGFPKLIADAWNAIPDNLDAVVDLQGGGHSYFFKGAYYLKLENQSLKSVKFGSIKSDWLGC
Sequence of 26S proteasome non-ATPase regulatory subunit 14 (O00487 whole entry): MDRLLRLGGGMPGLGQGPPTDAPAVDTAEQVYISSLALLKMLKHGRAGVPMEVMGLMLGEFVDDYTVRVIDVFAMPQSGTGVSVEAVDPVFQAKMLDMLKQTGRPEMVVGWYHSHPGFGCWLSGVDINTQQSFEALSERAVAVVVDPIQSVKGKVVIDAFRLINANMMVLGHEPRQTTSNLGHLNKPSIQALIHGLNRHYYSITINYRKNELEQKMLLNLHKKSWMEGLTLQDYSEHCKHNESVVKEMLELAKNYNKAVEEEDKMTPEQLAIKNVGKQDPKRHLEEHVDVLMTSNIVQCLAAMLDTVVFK
Sequence of Cytochrome P450 3A4 (P08684 whole entry): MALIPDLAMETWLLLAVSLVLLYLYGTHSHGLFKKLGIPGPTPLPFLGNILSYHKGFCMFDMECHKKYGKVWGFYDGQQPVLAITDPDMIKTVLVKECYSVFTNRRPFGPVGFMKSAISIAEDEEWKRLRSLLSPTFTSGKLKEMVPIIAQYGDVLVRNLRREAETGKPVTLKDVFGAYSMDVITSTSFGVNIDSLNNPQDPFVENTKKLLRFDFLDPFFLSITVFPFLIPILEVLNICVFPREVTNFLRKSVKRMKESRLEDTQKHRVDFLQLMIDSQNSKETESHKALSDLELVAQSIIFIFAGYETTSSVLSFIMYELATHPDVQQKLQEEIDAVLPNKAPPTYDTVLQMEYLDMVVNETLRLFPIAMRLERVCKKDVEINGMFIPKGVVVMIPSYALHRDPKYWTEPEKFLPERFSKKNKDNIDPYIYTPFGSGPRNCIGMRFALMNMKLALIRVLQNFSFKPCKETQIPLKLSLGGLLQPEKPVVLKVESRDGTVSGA

SMILES: CN(C)C1(CNC(=O)Nc2ccc(Cl)c(Cl)c2)CCCCC1
- EC50 [1]: 1.68 µM (active)
- CC50 [2]: > 40 µM (active)

SMILES: O=C(/C=C/c1cc(Br)ccc1O)c1ccco1
- EC50 [3]: > 150 µM (inconclusive)
- EC50 [4]: 2.26 µM (active)
- CC50 [2]: 7.21 µM (active)
- AC50 [5]: 7.73 µM (active)

SMILES: CCOc1cc(/C=C2\SC(=S)N(NC(=O)c3cccnc3)C2=O)ccc1O
- IC50 [6]: 25.8 µM (active)
- IC50 (Prothrombin): 35.7 µM (active)
- IC50 [7]: > 100 µM (inactive)

SMILES: CC(C)OC(=O)c1c2c(n3ccccc13)C(=O)c1ccccc1C2=O
- AC50 [8]: 2.17 µM (active)
- EC50 [9]: > 99 µM (inactive)
- EC50 [10]: > 99 µM (inactive)
- IC50 (cells): 0.44 µM (active)

SMILES: Cc1cccc(C(=O)OC2CCCN(C)C2)c1C (centres undefined)
- EC50 [1]: 0.841 µM (active)

SMILES: O=C(CCl)NN=C(c1ccccc1)c1ccccc1
- AC50 [11]: 12.1 µM (active)
- EC50 [9]: > 99 µM (inactive)
- EC50 [10]: 61.2 µM (inactive)
- CC50 [2]: 6.85 µM (active)
- EC50 (Protein RecA): 2.71 µM (active)

SMILES: COc1cccc(Nc2nc(-c3ccccc3O)nc3ccccc23)c1
- EC50 [9]: 40.7 µM (inactive)
- EC50 [10]: > 99 µM (inactive)

SMILES: CCCCCCCC/C=C\CCCCCCCC(=O)N(CCO)CCO
- AC50 (Cytochrome P450 3A4): 12.6 µM (inconclusive)
- AC50 [12]: 31.6 µM (inconclusive)

SMILES: COC(=O)c1c(NC(=O)c2nc3ccccc3s2)sc2c1CC(C)(C)NC2(C)C
- EC50 [13]: 8.54 µM (active)
- EC50 [14]: 8.33 µM (active)
- EC50 [15]: 8.05 µM (active)
- IC50 [16]: > 20 µM (inactive)
- EC50 [9]: > 99 µM (inactive)
- EC50 [10]: > 99 µM (inactive)

SMILES: Cc1cc(C)c2c(N)c(C(=O)N/N=C/c3cccs3)sc2n1
- IC50 [6]: 8.64 µM (active)
- IC50 (Prothrombin): 35.8 µM (active)
- IC50 [7]: > 100 µM (inactive)

SMILES: O=C(N/N=C/c1cc([N+](=O)[O-])ccc1O)c1cc(-c2ccccc2)nc2ccccc12
- EC50 [17]: 1.83 µM (active)
- AC50 (INS1): 1.24 µM (active)
- IC50 [6]: 14.8 µM (active)
- EC50 (Streptococcus): 2.65 µM (active)
- IC50 (Prothrombin): 10.7 µM (active)
- IC50 [7]: > 100 µM (inactive)

SMILES: CCOC(=O)c1ncn2c1[C@@H]1CCCN1C(=O)c1cc(OC)ccc1-2
- AC50 [12]: 25.1 µM (inconclusive)

SMILES: ClC1=C(Cl)C2(Cl)C3C4C=CC(C4)C3C1(Cl)C2(Cl)Cl (centres undefined) [ALDRIN]
- AC50 [12]: 20 µM (inconclusive)

SMILES: Nc1nc2[nH]c(=O)cnc2c(=O)[nH]1 [ISOXANTHOPTERIN]
- GI50 (P388/ADR): > 125 µM (inactive)
- GI50 (P388): > 125 µM (inactive)
- GI50 (SN12K1): > 125 µM (inactive)
- AC50 [12]: 17.8 µM (inconclusive)
